Common to all, as to type: binding
Test [1] concerns the target T1, GST-PTIP BRCT domains (residues 550-757) (Homo sapiens, UniProt Q6ZW49).
T1 construct: 15 μM GST-PTIP BRCT domains (residues 550-757); made in house; host or cells: E. coli DH5a
Put plainly: Isothermal titration calorimetry of peptides with PTIP tandem BRCT domains. Conditions: for Kd: ITC, PTIP (BRCT)2 domain. An excerpt: (§1) For deletion mapping of the PTIP and BRCA1 BRCT phospho-binding region and for expression of MDC 1, 53BP1 and Rad9 (FIG. 17-18), fragments were generated by PCR for in vitro transcription/translation and cloned into a pcDNA3.1 expression vector (Invitrogen, San Diego, Calif.). For production of recombinant GST-PTIP BRCT domains and GSTBRCA1 BRCT domains, residues 550-757 of PTIP and residues 1634-1863 of BRCA1 were ligated into the EcoRI and NotI sites of pGEX-4T1 (Pharmacia, Peapack, N.J.) and subsequently transformed into DH5a E. Coli. Protein induction occurred at 37° C. for 4 hours or at 25° C. for 16 hours in the presence of 0.4 mM IPTG. For peptide filter blot analysis and measurements of peptide binding affinity by ITC, GSTPTIP BRCT domains (residues 550-757) and GST-BRCA1 BRCT domains (residues 1634-1863) were isolated from bacterial lysates using glutathione agarose, eluted with 40 mM glutathione, and dialyzed into 50 mM Tris/HCl (pH 8.1), 300 mM NaCl. The GFP-PTIP constructs FL (residues 1-757), !BRCT (residues 1-550), or (BRCT)2 (residues 550-757) were cloned into the EcoRI and SalI sites of the pEGFP-C2 (BD Biosciences Clontech Franklin Lakes, N.J.) expression vector.
(§2) Peptides were synthesized by solid phase technique with three C-terminal lysines to enhance solubility. The peptides were then purified by reverse phase HPLC following deprotection and confirmed by MALDI-TOF mass spectrometry. Calorimetry measurements were performed using a VP-ITC microcalorimeter (MicroCal Inc., Studio City, Calif.). Experiments involved serial 10 μL injections of peptide solutions (20 μM-150 μM) into a sample cell containing 15 μM GST-PTIP BRCT domains (residues 550-757) or 15 μM GST-BRCA1 BRCT domains (residues 1634-1863) in 50 mM Tris/HCl (pH 8.1), 300 mM NaCl. Twenty injections were performed with 240 second intervals between injections and a reference power of 25 μCal/s. Binding isotherms were plotted and analyzed using ORIGIN Software (MicroCal Inc. Studio City, Calif.).

The target of test [2] is T2, GST-BRCA1 BRCT domains (residues 1634-1863) (Homo sapiens, UniProt P38398).
T2 construct: 15 μM GST-BRCA1 BRCT domains (residues 1634-1863); made in house; host or cells: E. coli DH5a
Put plainly: Isothermal titration calorimetry of peptides with BRCA1 tandem BRCT domains.
Excerpt: as §1, §2

The target in test [3] is T3, Plk-1 PBD (residues 326-603) (Homo sapiens, UniProt P53350).
T3 construct: sample cell containing 15 μM Plk-1 PBD (residues 326-603); GST (N, cleaved yes); made in house; host or cells: E. coli BL21
Put plainly: Isothermal titration calorimetry of peptides with Plk-1 PBD. The following applies: for peptide binding to Plk-1 PBD by ITC (in words): no detectable binding for a Plk1 PBD concentration of at least 150 μM. As to the method:
For deletion mapping of the PBD, C-terminal fragments of Plk-1 were generated by PCR and cloned into the EcoRI and XhoI sites of pcDNA3.1 (Invitrogen). For production of recombinant PBD as a GST fusion in bacteria, the 326-603 fragment of Plk-1 was ligated into the EcoRI and XhoI sites of pGEX-4T (Pharmacia), transformed into BL21, and induced in late log-phase cells at 37° C. for 3.5 hours in the presence of 0.4 mM IPTG. For measurements of peptide binding affinity by ITC, GST-Plk-1 (326-603) was isolated from bacterial lysates using glutathione agarose, cleaved from GST using thrombin (10 U/mL), and purified by anion exchange chromatography (Q Sepharose HP, Pharmacia).
Peptides were synthesized by solid phase technique with two C-terminal lysines to enhance solubility, purified by reverse phase HPLC following deprotection, and confirmed by MALDI-TOF 9 Matrix-assisted laser desorption/ionisation-time of flight mass spectrometry. Some peptides contained an additional tyrosine residue to facilitate concentration determination by optical absorbance. calorimetry measurements were performed using a VP-ITC microcalorimeter (MicroCal Inc., Studio City, Calif.). Experiments involved 10 μL injections of peptide solutions (150 μM-180 μM) into a sample cell containing 15 μM Plk-1 PBD (residues 326-603) in 50 mM Tris/HCl (pH 8.1), 200 mM NaCl, 2 mM TCEP. Thirty injections were performed with a spacing of 240 s and a reference power of 25 μCal/s. Binding isotherms were plotted and analyzed using Origin Software (MicroCal Inc. Studio City, Calif.).
Peptides were synthesized by solid phase technique with two C-terminal lysines to enhance solubility. Some peptides contained an additional tyrosine residue to facilitate concentration determination by optical absorbance. Isothermal titration calorimetry was performed using a VP-ITC microcalorimeter (MicroCal Inc. Studio City, Calif.) by titration of 15-40 μM solutions of PBD proteins with 30×10 μl injections of […] peptide in a starting volume of 1.4-2.0 ml. Binding isotherms were plotted and analyzed using Origin Software (MicroCal Inc. Studio City, Calif.). Binding of in vitro translated Plk1 PBD (wild type and mutants) to bead-immobilized pTP and TP peptide libraries was performed as described previously (Elia et al., Science 299:1228-1231, 2003). pTP and TP indicate the peptide libraries biotin-Z-Gly-Z-Gly-Gly-Ala-X-X-B-X-pThr-Pro-X-X-X-X-Ala-Lys-Lys-Lys SEQ ID NO: 30 biotin-Z-Gly-Z-Gly-Gly-Ala-X-X-B-X-Thr-Pro-X-X-X-X-Ala-Lys-Lys-Lys SEQ ID NO: 31, respectively, where pThr is phosphothreonine, Z is aminohexanoic acid, X denotes all amino acids except Cys, and B is a biased mixture of the amino acids P, L, I, V, F, M, W.

Test [4] concerns the target T4, GST-Plk-1 PBD (residues 326-603) interaction with mitotic phosphoproteins (Homo sapiens, UniProt P53350).
T4 construct: GST-Plk-1 (residues 326-603) was immobilized on glutathionine beads; made in house; host or cells: E. coli BL21
Put plainly: Peptide competition of GST-Plk-1 PBD pull-down of MPM-2 mitotic phosphoproteins from HeLa lysates. Conditions: 320 μM peptide, 45 minutes at 4° C.; nocodazole-arrested HeLa lysates; listed as 7V. As for the experimental part:
HeLa cells were arrested in interphase or G2/M by treatment with aphidicolin (5 μg/mL) or nocodazole (50 ng/mL), respectively, for 16 hours. Cells were lysed in 25 mM Tris/HCl (pH 7.5) containing 125 mM NaCl, 0.5% NP-40, 5 mM EDTA, 2 mM DTT, 4 μg/mL pepstatin, 4 μg/mL aprotinin, 4 μg/mL leupeptin, 1 mM Na3VO4, 50 mM NaF, and […] microcystin, and 150 μgs of lysate incubated with 10 μL of glutathione agarose beads containing 2-5 μg of GST-Plk-1 (residues 326-603), GST-Pin1, or GST for 30 minutes at 4° C. Beads were washed four times with lysis buffer. Precipitated proteins were eluted in sample buffer and detected by blotting with monoclonal MPM-2 (Upstate Biotechnology, Inc.) or polyclonal anti-Cdc25C (Santa Cruz Biotechnology, Santa Cruz, Calif.). For peptide competition experiments, GST-Plk-1 (residues 326-603) was immobilized on glutathionine beads and preincubated with 320 μM of PoloBoxtide-optimal, −8T, or −7V for 45 minutes at 4° C. For binding experiments involving mutant cdc25C, HeLa cells were transfected with wild-type and mutated versions of HA-tagged Cdc25C in pECE using Superfect (Qiagen, Valencia, Calif.). Nocodazole (50 ng/mL) was added seventeen hours after transfection and cells incubated for an additional 14 hours to arrest them in G2/M. Point mutations of Cdc25C were constructed using the QuickChange site-directed mutagenesis system (Stratagene) and verified by DNA sequencing.

Non-standard residues stand in square brackets, D forms with d. Residues, ends and D or L forms follow the SMILES beside them. No end group written: not given here. pT = C[C@@H](OP(=O)(O)O)[C@H](N)C(=O)O; pS = N[C@@H](COP(=O)(O)O)C(=O)O

T1 sequence (Q6ZW49 862-1069): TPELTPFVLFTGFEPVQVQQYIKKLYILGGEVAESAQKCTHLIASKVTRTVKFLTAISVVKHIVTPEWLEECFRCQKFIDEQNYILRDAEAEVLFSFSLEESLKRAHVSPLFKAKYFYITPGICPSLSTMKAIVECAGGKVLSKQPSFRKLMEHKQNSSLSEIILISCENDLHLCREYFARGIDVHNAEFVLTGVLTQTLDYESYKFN
T3 sequence (P53350 326-603): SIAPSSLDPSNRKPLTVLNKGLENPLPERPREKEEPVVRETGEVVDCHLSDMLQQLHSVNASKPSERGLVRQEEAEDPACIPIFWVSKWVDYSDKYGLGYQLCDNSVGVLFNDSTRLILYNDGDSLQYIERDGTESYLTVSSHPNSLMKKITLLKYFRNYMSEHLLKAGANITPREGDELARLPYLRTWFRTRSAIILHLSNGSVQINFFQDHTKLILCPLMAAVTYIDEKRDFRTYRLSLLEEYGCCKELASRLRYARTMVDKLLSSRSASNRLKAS
T2 sequence (P38398 1634-1863): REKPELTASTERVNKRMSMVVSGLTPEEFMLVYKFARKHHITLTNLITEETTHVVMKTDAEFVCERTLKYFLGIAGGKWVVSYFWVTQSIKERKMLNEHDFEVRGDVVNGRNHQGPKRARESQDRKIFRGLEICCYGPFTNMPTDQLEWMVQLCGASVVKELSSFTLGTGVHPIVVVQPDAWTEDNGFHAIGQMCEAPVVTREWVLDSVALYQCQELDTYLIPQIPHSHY
T4 sequence (P53350 326-603): as the sequence (P53350 326-603) above

With `CC[C@H](C)[C@H](NC(=O)[C@H](CC(=O)O)NC(=O)[C@H](Cc1ccc(O)cc1)NC(=O)[C@H](C)NC(=O)[C@H](C)NC(=O)CN)C(=O)N[C@@H](COP(=O)(O)O)C(=O)N[C@@H](CCC(N)=O)C(=O)N[C@H](C(=O)N[C@@H](Cc1ccccc1)C(=O)N1CCC[C@H]1C(=O)N[C@@H](Cc1ccccc1)C(=O)N[C@@H](C)C(=O)N[C@@H](CCCCN)C(=O)N[C@@H](CCCCN)C(=O)N[C@@H](CCCCN)C(=O)O)C(C)C` [BRCTtide-7pS] (H-GAAYDI[pS]QVFPFAKKK-OH; N-terminus and C-terminus assumed), the Kd is 280 nM in test [1] and 400 nM in test [2] (ITC, BRCT domains of BRCA1, text, read-out: dissociation constant). As for `CC[C@H](C)[C@H](NC(=O)[C@H](CC(=O)O)NC(=O)[C@H](Cc1ccc(O)cc1)NC(=O)[C@H](C)NC(=O)[C@H](C)NC(=O)CN)C(=O)N[C@H](C(=O)N[C@@H](CCC(N)=O)C(=O)N[C@H](C(=O)N[C@@H](Cc1ccccc1)C(=O)N1CCC[C@H]1C(=O)N[C@@H](Cc1ccccc1)C(=O)N[C@@H](C)C(=O)N[C@@H](CCCCN)C(=O)N[C@@H](CCCCN)C(=O)N[C@@H](CCCCN)C(=O)O)C(C)C)[C@@H](C)OP(=O)(O)O` [BRCTtide-7pT] (H-GAAYDI[pT]QVFPFAKKK-OH; N-terminus and C-terminus assumed), in test [1], the Kd stood at 14300 nM.

Take `CSCC[C@H](NC(=O)[C@@H]1CCCN1C(=O)CNC(=O)[C@H](C)NC(=O)[C@@H](N)CCSC)C(=O)N[C@@H](CCC(N)=O)C(=O)N[C@@H](CO)C(=O)N[C@H](C(=O)N1CCC[C@H]1C(=O)N[C@@H](CC(C)C)C(=O)N[C@@H](CC(N)=O)C(=O)NCC(=O)N[C@@H](C)C(=O)N[C@@H](CCCCN)C(=O)N[C@@H](CCCCN)C(=O)O)[C@@H](C)OP(=O)(O)O` [PoloBoxtide-optimal, MAGPMQ-S-pT-P-LNGAKK] (H-MAGPMQS[pT]PLNGAKK-OH): in test [3], the Kd was 280 nM.

As to GAAYDISQVFPFAKKK [BRCTtide-7S], the “Kd (N.D.B.)” value is “N.D.B” in test [1] (PTIP, N.D.B = no detectable binding by ITC, tandem BRCT domain concentration of at least 150 μM) and “N.D.B” in test [2] (BRCA1, N.D.B = no detectable binding by ITC, tandem BRCT domain concentration of at least 150 μM).

Regarding “PoloBoxtide-7A: mutated version of the optimal peptide, Ala at pT-1 (SEQ ID NO:68) (MAGPMQA[pT]PLNGAYKK)”, in test [3], the “peptide binding to Plk-1 PBD by ITC (in words)” value is “abolish Plk1 PBD/peptide binding”. “PoloBoxtide-7C: mutated version of the optimal peptide, Cys at pT-1 (SEQ ID NO:70) (MAGPMQC[pT]PLNGAYKK)”: the “peptide binding to Plk-1 PBD by ITC (in words)” value in test [3] was “abolish Plk1 PBD/peptide binding”. On the same count and under the same terms, the value for “PoloBoxtide-7G: mutated version of the optimal peptide, Gly at pT-1 (SEQ ID NO:69) (MAGPMQG[pT]PLNGAYKK)” was “abolish Plk1 PBD/peptide binding”; that for “PoloBoxtide-7T: mutated version of the optimal peptide, Thr at pT-1 (SEQ ID NO:71) (MAGPMQT[pT]PLNGAYKK)” was “abolish Plk1 PBD/peptide binding”.

Consider “PoloBoxtide-7V: phosphopeptide whose serine at pThr-1 was mutated to valine (SEQ ID NO:67) (MAGPMQV[pT]PLNGAKK)”, for which the “effect of peptide pre-incubation on GST-Plk-1 PBD binding of MPM-2 epitopes” value in test [4] was “had no effect”.

Values taken from US20110104713A1, “PRODUCTS AND PROCESSES FOR MODULATING PEPTIDE-PEPTIDE BINDING DOMAIN INTERACTIONS” (priority 2002, published 2011).
